Laboratory results reported in patent US11065211B2, “Isoxylitones mediated neurogenesis” (priority 2018, dated 2021).

Assays:
Type in all cases: cell-based, rat
[1] = test system: co-cultured hippocampal (HP-CoCul) cells; experiment: Growth supporting effect on co-cultures with BMSCs (phase contrast microscopy); conditions: 24 h, FIG. 2
Description: (§1) Wistar rats (150-200 gm) were used to isolate bone marrow (BM). Rats were sacrificed and their femurs were removed aseptically. The bone marrow (BM) was flushed from the shaft of the bone by clipping of the epiphysial ends and flushing using a 26-gauge needle with ˜2 ml of Dulbecco's Modified Eagle's medium (DMEM) supplemented with 5% FBS, 1% penicillin/streptomycin solution, 1% sodium pyruvate and L-glutamine. The BM was then centrifuged for 8 minutes at 1000 rpm. Following centrifugation, cell pellet was collected and 1 ml of fresh DMEM was added. The cell viability was checked using trypan blue exclusion method. The cells were then divided into three equal parts. One part was co-cultured with freshly isolated hippocampal cells in T75 cm^2 flask, 2nd with freshly isolated cortical cells and the third portion (BM cells only) was cultured as a control. The cell density for co-cultures was set at 140,000 cells/ml for each type of culture. The cultured flasks were then incubated at 37° C. and 5% CO2. After 4-5 days, floating hematopoietic cells and dead debris/tissues of hippocampus and cortex were removed and bone marrow stromal cells (BMSCs) were recovered due to their tendency to adhere. Medium was replaced after every 3 to 4 days till cells became 80-90% confluent.
(§2) To evaluate the growth supporting effect of isoxylitones the hippocampal, cortical and co-cultured cells were plated in 6-well plates and treated with 25 μg/mL, 50 μg/mL, 75 μg/mL and 150 μg/mL doses of isoxylitones. Cells with no treatment were set as a control. The plates were incubated for 24 and 72 hrs in a humidified chamber at 37° C. in 5% CO2. To assess the morphology of the treated cells, images were captured and digitalized with Nikon TE-2000 inverted microscope equipped with phase-contrast optics to measure the difference of control group from treated group. The cells were observed carefully in order to check if they maintain their morphological characteristics after treatment with the compound. The doses which supported the maximum proliferation were used for proliferation assays i.e., AlamarBlue and BrdU assay.

[2] = test system: co-cultured cortical (CTX-CoCul) cells; experiment: as above; conditions: 24 h, FIG. 2
Description: as §1, §2

hippocampal cells = experiment: BrdU proliferation ELISA assay; conditions: 24 h, FIG. 5
Description: (§3) BrdU-Incorporation Assay: For measuring the newly synthesized cells during proliferation of treated and un-treated cultured hippocampal, cortical and co-cultured cells, the BrdU (Calbiochem®, CA, USA) cell proliferation ELISA kit was used. This immunoassay is based on the measurement of BrdU (5-bromo-2′-deoxiurydine) incorporation into DNA during division phase of the proliferating cells. For BrdU proliferation assay, primary cultured cells were grown in 75 cm flasks and when cells were confluent they were trypsinized and re-plated with a cell density of 1×10^5 cells/mL in 96-well tissue culture grade flat bottom ELISA plates, i.e., (10,000 cells/well) in DMEM medium (high glucose). The plates were incubated overnight at 37° C. in 5% CO2. Next day, media was changed and adherent cells were treated with different doses of isoxylitones, i.e., 25, 50, 75, 100, and 150 μg/mL and incubated for 24 hrs in a humidified chamber at 37° C. and 5% CO2.
(§4) The following day, the cells were first labeled by the 20 μL of BrdU (1:2000) in fresh medium and kept in a humidified atmosphere at 37° C. for 24 hrs. During 20-24 hrs of labeling period, BrdU is incorporated in place of thymidine into the DNA of the proliferating cells. After removing the labeling medium by tapping off the plate, cells were fixed, and DNA denatured in one step by adding 200 μL of fixative or Denat solution (provided in the kit) in each well following incubation for 30 minutes at room temperature.
(§5) The fixation and denaturation of DNA is required to expose the incorporated BrdU for detection by the antibody. The fixative or Denat solution was removed by flicking off and tapping on paper towel. […] The immune complexes were detected by the subsequent substrate reaction and the absorbance was measured on spectrophotometer plate reader at dual wave lengths of 450-595 nm within 30 minutes of adding the stop solution. The data was analyzed using SPSS and graphs were made on Excel.

cortical cells = experiment: BrdU proliferation ELISA assay; conditions: 150 μg/ml, 24 h, FIG. 5
Description: as §3, §4, §5

hippocampal (HP) cells = experiment: Growth supporting effect on neuronal cultures (phase contrast microscopy); conditions: FIG. 1
Description: (§6) For isolation of hippocampal and cortical neurons, two days old rat pups were sacrificed under sterile conditions. Brain samples were carefully isolated and hippocampal and cortical regions were dissected out and placed in ice-cold PBS supplemented with 1% penicillin-streptomycin. Tissue was chopped in small pieces with a sterile scalpel and washed three times with PBS. Subsequently tissues were digested in typsin-EDTA solution (0.05% of trypsin) for 7 minutes at 37° C. and 5% CO2 in a humidified chamber. After typsinisation, cells were washed three times in Dulbecco's Modified Eagle's Medium (DMEM) media containing 5% FBS and finally triturated using flame-polished Pasteur pipette to prepare dissociated cell suspension. The cell suspensions were then centrifuged at 1200 rpm for 4 minutes, supernatants were discarded and cell pellets were re-suspended in 1 mL complete media to find out the cell count and viability. Cells were finally cultured in DMEM (high glucose), supplemented with 10% fetal bovine serum (FBS), 1% L-Glutamine, 1% penicillin/streptomycin (10,000 U/mL and 10 mg/mL, resp.), and 1% sodium pyruvate. The culture flasks (75 cm^2) were then incubated at 37° C. with 5% CO2. Cells were examined daily for any change in morphology or contamination. Media was changed twice or thrice weekly. All cell work was done in a tissue culture hood under sterile conditions.
as §2

cortical (CTX) cells = experiment: as above; conditions: cortical cells treated for 24 h, FIG. 1
Description: as §6, §2

[3] = hippocampal cells treated for 24 h

CC(=O)C=C1C=C(C)CC(C)(C)C1 (mixture of isomers) [isoxylitones]
number of proliferating cells ([1]; HP-CoCul cells): Marked increase | variation in morphology ([1]; HP-CoCul cells): no significant variation in the morphology | rate of proliferation in hippocampus cells as compared to cortical cells ([1]; co-cultured cells): almost double | number of proliferating cells [2]: Marked increase | variation in morphology [2]: no significant variation in the morphology | BrdU positive cells (hippocampal cells; 100 μg/ml): significantly increased BrdU positive cells | BrdU positive cells (hippocampal cells; 150 μg/ml): significantly increased BrdU positive cells | BrdU positive cells (cortical cells): slightly increased BrdU positive cells | effect on morphology (hippocampal (HP) cells; [3]): without any significant change in morphology | proliferation (phase contrast photomicrographs) (hippocampal (HP) cells; [3]): increased proliferation | proliferation of treated hippocampal cells compared to cortical cells (hippocampal (HP) cells; treated for 24 h): higher proliferation as compared to cortical cells | effect on morphology (cortical (CTX) cells): without any significant change in morphology | proliferation (phase contrast photomicrographs) (cortical (CTX) cells): increased proliferation
